Laboratory results as given in patent US9187486B2 (AMGEN INC., priority 2011, dated 2015).
pIC50: −log10 of the molar value. Like-named read-outs stand apart in the source and are kept apart here.

Tests used:
Pim-1 = Pim-1 (Homo sapiens (Human), UniProt P11309); assay: Pim enzyme assay (HTRF, phosphorylation of biotinylated-BAD (S112) peptide), Pim-1; format: biochemical; details: read-out: Pim_1_IC50
How it was run: (§1)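 Full-length human Pim-1 or Pim-2 with an N-terminal His6 tag, expressed in Sf9 or E. coli and purified as monomer. HTRF read-out: biotinylated BAD (S112) peptide phosphorylation detected with streptavidin-APC plus Eu-anti-phospho-BAD(S112) antibody, excitation 337 nm, emission 665 nm.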

Pim-2 = Pim-2 (Homo sapiens (Human), UniProt Q9P1W9); assay: Pim enzyme assay (HTRF, phosphorylation of biotinylated-BAD (S112) peptide), Pim-2; format: biochemical; details: full length recombinant Pim-2, biotinylated-BAD (S112) peptide, HTRF; read-out: Pim2_IC50
Sequence of Pim-2 (Q9P1W9 whole entry): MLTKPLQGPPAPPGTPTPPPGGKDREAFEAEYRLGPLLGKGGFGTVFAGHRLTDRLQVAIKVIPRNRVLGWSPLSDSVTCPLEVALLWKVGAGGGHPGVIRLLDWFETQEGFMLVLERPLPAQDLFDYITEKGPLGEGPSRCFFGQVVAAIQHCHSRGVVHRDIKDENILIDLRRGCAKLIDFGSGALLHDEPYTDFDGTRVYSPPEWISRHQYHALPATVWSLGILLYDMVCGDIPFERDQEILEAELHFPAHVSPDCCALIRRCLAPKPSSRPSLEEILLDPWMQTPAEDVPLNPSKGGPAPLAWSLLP
How it was run: as §1

[1] = tested on: KMS-12-BM myeloma cell line; assay: Pim cell assay: phospho-BAD (S112) and total BAD in KMS-12-BM cells; format: cell-based; details: Homo sapiens, KMS-12-BM, 1 hour and 50 minutes incubation, read-out: KMS12_Cell_IC50
Description: The KMS-12-BM myeloma cell line was used to determine the in vitro cellular inhibition of Pim kinases. Disruption of Pim signaling by Pim inhibitors was determined by measuring the levels of phospho-BAD (S112) and total BAD. […] The cells were then incubated overnight at 37° C., 5% CO2. […] In addition to the 10-point dosing curve of the test compound, DMSO alone was run as a control. This dilution in DMSO was then diluted again into cell growth medium. Aliquots (11.1 uL) of the compound diluted in growth medium were then transferred to the appropriate wells of the 96-well plates containing cells to yield a final DMSO concentration of 0.3%. The cell plates were then incubated with compound for 1 hour and 50 minutes at 37° C., 5% CO2. After the 1 hour and 50 min incubation, the cell plates were spun at 1000 RPM for 10 minutes and the compound-containing medium was removed. […] The cell plates containing lysis buffer were then immediately stored at −70° C. These prepared lysates were then assayed for phospho-(S112) and total-BAD according to the manufacturer's protocol (Meso Scale Diagnostics, Cat # K15103D-3). The plates were read on the MSD Sector Imager 6000, and results were calculated according to the assay protocol: ((% Phosphoprotein=((2×Phospho signal)/(Phospho signal+Total signal))×100)).

[2] = full length recombinant Pim-1, biotinylated-BAD (S112) peptide, HTRF

Sequence of Pim-1 (P11309 whole entry): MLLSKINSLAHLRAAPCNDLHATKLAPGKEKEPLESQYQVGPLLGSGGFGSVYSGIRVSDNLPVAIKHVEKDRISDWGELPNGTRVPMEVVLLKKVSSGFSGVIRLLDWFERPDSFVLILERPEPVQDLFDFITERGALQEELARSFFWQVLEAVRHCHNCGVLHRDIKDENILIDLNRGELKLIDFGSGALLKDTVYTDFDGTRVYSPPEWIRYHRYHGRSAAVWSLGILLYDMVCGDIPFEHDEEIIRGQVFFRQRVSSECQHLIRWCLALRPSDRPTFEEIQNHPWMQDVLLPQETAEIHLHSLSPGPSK

Structure (SMILES): N[C@H]1CCCN(c2ccncc2Nc2ncc3ccc(-c4ccccc4Cl)nn23)C1 [Example 4, N-(4-((3S)-3-amino-1-piperidinyl)-3-pyridinyl)-2-(2-chlorophenyl)imidazo[1,5-b]pyridazin-7-amine]
- pIC50 (Pim-1; [2]): 9.05
- pIC50 (Pim-2): 8.52
- pIC50 [1]: 5.57

Structure (SMILES): N[C@H]1CCCN(c2ccncc2Nc2ncc3ccc(-c4cccnc4Cl)nn23)C1 [Example 6, N-(4-((3S)-3-amino-1-piperidinyl)-3-pyridinyl)-2-(2-chloro-3-pyridinyl)imidazo[1,5-b]pyridazin-7-amine (2,2,2-trifluoroacetate)]
- pIC50 (Pim-1; [2]): 8.10
- pIC50 (Pim-2): 7.11
- pIC50 [1]: 5.18

Structure (SMILES): N[C@H]1CCCN(c2ccncc2Nc2ncc3ccc(-c4cccnc4F)nn23)C1 [Example 7, N-(4-((3S)-3-amino-1-piperidinyl)-3-pyridinyl)-2-(2-fluoro-3-pyridinyl)imidazo[1,5-b]pyridazin-7-amine]
- pIC50 (Pim-1; [2]): 9.05
- pIC50 (Pim-2): 7.92
- pIC50 [1]: 5.18

Structure (SMILES): N[C@H]1CCCN(c2ccncc2Nc2ncc3ccc(-c4nccs4)nn23)C1 [Example 8, N-(4-((3S)-3-amino-1-piperidinyl)-3-pyridinyl)-2-(1,3-thiazol-2-yl)imidazo[1,5-b]pyridazin-7-amine]
- pIC50 (Pim-1; [2]): 9.00
- pIC50 (Pim-2): 8.52
- pIC50 [1]: 6.14

Structure (SMILES): Fc1cccc(F)c1-c1ccc2cnc(Nc3cnccc3OC3CNC3)n2n1 [Example 9, N-(4-(3-azetidinyloxy)-3-pyridinyl)-2-(2,6-difluorophenyl)imidazo[1,5-b]pyridazin-7-amine]
- pIC50 (Pim-1; [2]): 7.85
- pIC50 (Pim-2): 7.00
- pIC50 [1]: 4.99

Structure (SMILES): N[C@H]1CCCN(c2ccncc2Nc2ncc3ccc(-c4ccc(Cl)cc4Cl)nn23)C1 [Example 11, N-(4-((3S)-3-amino-1-piperidinyl)-3-pyridinyl)-2-(2,4-dichlorophenyl)imidazo[1,5-b]pyridazin-7-amine]
- pIC50 (Pim-1; [2]): 8.70
- pIC50 (Pim-2): 7.96
- pIC50 [1]: 5.30

Structure (SMILES): N[C@H]1CCCN(c2ccncc2Nc2ncc3ccc(-c4ccc(F)cc4F)nn23)C1 [Example 12, N-(4-((3S)-3-amino-1-piperidinyl)-3-pyridinyl)-2-(2,4-difluorophenyl)imidazo[1,5-b]pyridazin-7-amine]
- pIC50 (Pim-1; [2]): 9.40
- pIC50 (Pim-2): 8.52
- pIC50 [1]: 5.75

Structure (SMILES): N[C@H]1CCCN(c2ccncc2Nc2ncc3ccc(-c4ccccc4F)nn23)C1 [Example 15, N-(4-((3S)-3-amino-1-piperidinyl)-3-pyridinyl)-2-(2-fluorophenyl)imidazo[1,5-b]pyridazin-7-amine bis(2,2,2-trifluoroacetate)]
- pIC50 (Pim-1): 9.70
- pIC50 (Pim-2): 8.70
- pIC50 [1]: 5.81

Structure (SMILES): Clc1ccccc1-c1ccc2cnc(Nc3cnccc3O[C@H]3CCCNC3)n2n1 [Example 16, 2-(2-chlorophenyl)-N-(4-((3S)-3-piperidinyloxy)-3-pyridinyl)imidazo[1,5-b]pyridazin-7-amine bis(2,2,2-trifluoroacetate)]
- pIC50 (Pim-1; [2]): 7.36
- pIC50 (Pim-2): 6.53
- pIC50 [1]: < 6.00

Structure (SMILES): C[C@H]1CN(c2ccncc2Nc2ncc3ccc(-c4c(F)cccc4F)nn23)C[C@@H](N)[C@@H]1O [Example 20, (3R,4R,5S)-3-amino-1-(3-((2-(2,6-difluorophenyl)imidazo[1,5-b]pyridazin-7-yl)amino)-4-pyridinyl)-5-methyl-4-piperidinol]
- pIC50 (Pim-1; [2]): 10.40
- pIC50 (Pim-2): 10.10
- pIC50 [1]: 7.40

Structure (SMILES): C[C@H]1CN(c2ccncc2Nc2ncc3ccc(-c4nccs4)nn23)C[C@@H](N)[C@@H]1O [Example 21, (3R,4R,5S)-3-amino-5-methyl-1-(3-((2-(1,3-thiazol-2-yl)imidazo[1,5-b]pyridazin-7-yl)amino)-4-pyridinyl)-4-piperidinol]
- pIC50 (Pim-1; [2]): 9.52
- pIC50 (Pim-2): 9.22
- pIC50 [1]: 6.68

Structure (SMILES): CS(=O)(=O)c1ccc(-c2ccc3cnc(Nc4cnccc4N4CCC[C@H](N)C4)n3n2)c(F)c1 [Example 22, N-(4-((3S)-3-amino-1-piperidinyl)-3-pyridinyl)-2-(2-fluoro-4-(methylsulfonyl)phenyl)imidazo[1,5-b]pyridazin-7-amine]
- pIC50 (Pim-1; [2]): 8.92
- pIC50 (Pim-2): 8.04
- pIC50 [1]: 5.62
